Assay results: PMC7435646, “Design, Synthesis and Bioactive Evaluation of Oxime Derivatives of Dehydrocholic Acid as Anti-Hepatitis B Virus Agents” (Molecules, 2020)

Experiments:
HBeAg = experiment: Inhibition of HBeAg secretion (ELISA) in HepG2.2.15 cells; assay type: cell-based, hepatitis B virus (HBV); details: for inhibition of HBV in vitro assay: in vitro assay (Table S1); for HBeAg IC50: ELISA, nine day treatment, mean ± S.D. (n = 3), '-' = inhibition ratio less than 50% in the test concentration range; for IC50: Hepatitis B virus, HepG2.2.15, 216 h, read-out: HBeAg IC50; for HBeAg SI: SI (selectivity index) = CC50/IC50
Description: HepG2.2.15 cells were kindly provided by the Chinese Academy of Medical Sciences (Beijing, China), derived from human hepatoma cell line G2. […] The compounds were diluted to the desired concentrations in culture medium. […] Every three days in a nine day period, supernatant of each well was replaced with compound-containing fresh medium.
(§1) The levels of HBeAg and HBsAg in the supernatant of the cells were measured using ELISA assay following the manufacturer’s protocol (Shanghai Kehua Bio-engineering Co., Ltd., Shanghai, China).

[1] = Cytotoxicity by MTT assay in HepG2.2.15 cells; assay type: cell-based; details: human, 50% cytotoxicity concentration in HepG 2.2.15 cells, mean ± S.D. (n = 3)
Description: (§2) HepG2.2.15 cells were kindly provided by the Chinese Academy of Medical Sciences (Beijing, China), derived from human hepatoma cell line G2. These cells were cultured in Dulbecco’s Modified Eagle’s Medium (DMEM), supplemented with 10% fetal bovine serum (FBS), 1.5 g/L of sodium bicarbonate, 10 mL/L of penicillin, and streptomycin, respectively, and 200 mg/L of G418 at 37 °C under 5% carbon dioxide in a 95–98% humidity. The compounds were diluted to the desired concentrations in culture medium. Before treated with various concentrations of compounds, cells were seeded at a density of 1 × 10^5 cells/mL in 96-well plates and incubated for 24 h at 37 °C. Every three days in a nine day period, supernatant of each well was replaced with compound-containing fresh medium.
The cytotoxicity activity of the synthesized compounds was determined by MTT assay. After refreshing the supernatant, 20 μL MTT (5 mg/mL) was added to each well, which was further cultured for 4 h at 37 °C. Then the supernatant of each well was carefully removed, formazan crystals were dissolved in […] of DMSO and the absorbance at 450 nm was recorded. Cytotoxicity of these compounds was expressed as the concentration of compound required to kill 50% (CC50) of the HepG2.2.15 cells.

HBsAg = experiment: Inhibition of HBsAg secretion (ELISA) in HepG2.2.15 cells; assay type: cell-based, hepatitis B virus (HBV); details: for IC50: Hepatitis B virus, HepG2.2.15, 216 h, read-out: HBsAg IC50; for HBsAg SI: SI (selectivity index) = CC50/IC50
Description: as §2
as §1, with “China). The synthesized compounds were expressed as the concentration that achieved 50% inhibition (IC50) to the secretion of HBeAg and HBsAg.” for “China).”

[2] = HepG2.2.15 cells, result in words

SMILES: C[C@H](CCC(=O)O)[C@H]1CC[C@H]2[C@@H]3[C@H](O)C[C@@H]4C[C@H](O)CC[C@]4(C)[C@H]3C[C@H](O)[C@]12C [Cholic acid]
- inhibition of HBV in vitro assay (HBeAg; result in words): did not exhibit inhibition

SMILES: CC(CCC(=O)O)C1CCC2C3C(=O)CC4CC(=NO)CCC4(C)C3CC(=O)C12C (stereo not drawn) [Compound 0-1, (E)-3-(hydroxyimino)-7,12-dioxolcholanic acid]
- CC50 at 9 days [1]: > 1000 µM
- HBeAg IC50 (HBeAg; HepG2.2.15 cells): - (The inhibition ratio less than 50% in the test concentration range)
- melting point: 250.4 to 252.4 °C

SMILES: CC(CCC(=O)O)C1CCC2C3C(=O)CC4CC(=NOCc5ccccc5)CCC4(C)C3CC(=O)C12C (stereo not drawn) [Compound 0-2, (E)-3-((benzyloxy)imino)-7,12-dioxolcholanic acid]
- CC50 at 9 days [1]: 470 ± 6.35 µM
- IC50 (HBeAg): 119 ± 1.86 µM
- HBeAg SI (HBeAg): 3.95
- melting point: 198.5 to 200.5 °C

SMILES: CON=C1CCC2(C)C(CC(=O)C3C2CC(=O)C2(C)C(C(C)CCC(=O)O)CCC32)C1 (stereo not drawn) [Compound 0-3, (E)-3-(methoxyimino)-7,12-dioxolcholanic acid]
- CC50 at 9 days [1]: > 1000 µM
- HBeAg IC50 (HBeAg; HepG2.2.15 cells): - (The inhibition ratio less than 50% in the test concentration range)
- melting point: 197.2 to 199.2 °C

SMILES: C[C@H](CCC(=O)OCc1ccccc1)[C@H]1CC[C@H]2[C@@H]3C(=O)CC4C/C(=N/O)CC[C@]4(C)[C@H]3CC(=O)[C@]12C (stereo partly drawn) [Compound 2a-1, Benzyl (E)-3-(hydroxyimino)-7,12-dioxocholanoate]
- CC50 at 9 days [1]: 378 ± 25.3 µM
- IC50 (HBeAg): 229 ± 12.8 µM
- HBeAg SI (HBeAg): 1.65
- IC50 (HBsAg): 630 ± 35 µM
- HBsAg SI (HBsAg): 0.60
- melting point: 199.2 to 201.2 °C

SMILES: C[C@H](CCC(=O)OCc1ccccc1)[C@H]1CC[C@H]2[C@@H]3C(=O)CC4C/C(=N/OCc5ccccc5)CC[C@]4(C)[C@H]3CC(=O)[C@]12C (stereo partly drawn) [Compound 2a-2, Benzyl (E)-3-((benzyloxy)imino)-7,12-dioxocholanoate]
- CC50 at 9 days [1]: 211 ± 17.1 µM
- IC50 (HBeAg): 249 ± 47.6 µM
- HBeAg SI (HBeAg): 0.85
- melting point: 135.3 to 137.3 °C

SMILES: CO/N=C1\CC[C@@]2(C)[C@H](CC(=O)[C@@H]3[C@@H]2CC(=O)[C@]2(C)[C@@H]([C@H](C)CCC(=O)OCc4ccccc4)CC[C@@H]32)C1 [Compound 2a-3, Benzyl (E)-3-(methoxyimino)-7,12-dioxolcholanoate]
- CC50 at 9 days [1]: 169 ± 5.75 µM
- IC50 (HBeAg): 188 ± 9.51 µM
- HBeAg SI (HBeAg): 0.90
- melting point: 132.6 to 134.6 °C

SMILES: C[C@H](CCC(=O)OCc1ccc2c(c1)OCO2)[C@H]1CC[C@H]2[C@@H]3C(=O)CC4C/C(=N/O)CC[C@]4(C)[C@H]3CC(=O)[C@]12C (stereo partly drawn) [Compound 2b-1, 3,4-Methylenedioxybenzyl (E)-3-(hydroxyimino)-7,12-dioxocholanoate]
- CC50 at 9 days [1]: > 1000 µM
- IC50 (HBeAg): 96.6 ± 29 µM
- HBeAg SI (HBeAg): 10.35
- melting point: 182.5 to 184.5 °C

SMILES: C[C@H](CCC(=O)OCc1ccc2c(c1)OCO2)[C@H]1CC[C@H]2[C@@H]3C(=O)CC4C/C(=N/OCc5ccccc5)CC[C@]4(C)[C@H]3CC(=O)[C@]12C (stereo partly drawn) [Compound 2b-2, 3,4-Methylenedioxybenzyl (E)-3-((benzyloxy)imino)-7,12-dioxocholanoate]
- CC50 at 9 days [1]: 728 ± 45.2 µM
- HBeAg IC50 (HBeAg; HepG2.2.15 cells): - (The inhibition ratio less than 50% in the test concentration range)
- melting point: 124.3 to 126.3 °C

SMILES: CO/N=C1\CC[C@@]2(C)C(CC(=O)[C@H]3[C@@H]4CC[C@H]([C@H](C)CCC(=O)OCc5ccc6c(c5)OCO6)[C@@]4(C)C(=O)C[C@@H]32)C1 (stereo partly drawn) [Compound 2b-3, 3,4-Methylenedioxybenzyl (E)-3-(methoxyimino)-7,12-dioxocholanoate]
- CC50 at 9 days [1]: 545 ± 28.9 µM
- IC50 (HBeAg): 49.4 ± 12.8 µM
- HBeAg SI (HBeAg): 11.03
- melting point: 118.7 to 120.7 °C

SMILES: C[C@H](CCC(=O)OCc1ccco1)[C@H]1CC[C@H]2[C@@H]3C(=O)CC4C/C(=N/O)CC[C@]4(C)[C@H]3CC(=O)[C@]12C (stereo partly drawn) [Compound 2c-1, Furan-2-ylmethyl (E)-3-(hydroxyimino)-7,12-dioxocholanoate]
- CC50 at 9 days [1]: 155 ± 30.8 µM
- IC50 (HBeAg): 111 ± 28.3 µM
- HBeAg SI (HBeAg): 1.40
- IC50 (HBsAg): 300 ± 15.3 µM
- HBsAg SI (HBsAg): 0.52
- melting point: 193.2 to 195.2 °C

SMILES: C[C@H](CCC(=O)OCc1ccco1)[C@H]1CC[C@H]2[C@@H]3C(=O)CC4C/C(=N/OCc5ccccc5)CC[C@]4(C)[C@H]3CC(=O)[C@]12C (stereo partly drawn) [Compound 2c-2, Furan-2-ylmethyl (E)-3-((benzyloxy)imino)-7,12-dioxocholanoate]
- CC50 at 9 days [1]: 101 ± 10.7 µM
- IC50 (HBeAg): 151 ± 32.1 µM
- HBeAg SI (HBeAg): 0.67
- IC50 (HBsAg): 464 ± 20.1 µM
- HBsAg SI (HBsAg): 0.22
- melting point: 131.5 to 133.5 °C

SMILES: CO/N=C1\CC[C@@]2(C)C(CC(=O)[C@H]3[C@@H]4CC[C@H]([C@H](C)CCC(=O)OCc5ccco5)[C@@]4(C)C(=O)C[C@@H]32)C1 (stereo partly drawn) [Compound 2c-3, Furan-2-ylmethyl (E)-3-(methoxyimino)-7,12-dioxocholanoate]
- CC50 at 9 days [1]: 90.9 ± 15.6 µM
- IC50 (HBeAg): 105 ± 22.2 µM
- HBeAg SI (HBeAg): 0.86
- IC50 (HBsAg): 181 ± 52.8 µM
- HBsAg SI (HBsAg): 0.50
- melting point: 122.3 to 124.3 °C

SMILES: C[C@H](CCC(=O)O)[C@H]1CC[C@H]2[C@@H]3C(=O)C[C@@H]4CC(=O)CC[C@]4(C)[C@H]3CC(=O)[C@]12C [DHCA, Dehydrocholic acid]
- CC50 at 9 days [1]: > 1000 µM
- HBeAg IC50 (HBeAg; HepG2.2.15 cells): - (The inhibition ratio less than 50% in the test concentration range)
- activity against the secretion of HBeAg (HBeAg; [2]): no activity
- inhibition of HBV in vitro assay (HBeAg; result in words): did not exhibit inhibition
- activity against the secretion of HBsAg (HBsAg; [2]): no activity

SMILES: C=C1[C@H](CO)[C@@H](O)C[C@@H]1n1cnc2c(=O)[nH]c(N)nc21 [ETV, Entecavir, reference compound]
- CC50 at 9 days [1]: 600 ± 23.4 µM
- IC50 (HBeAg): 247 ± 50 µM
- IC50 (HBsAg): 161 ± 35.9 µM
- HBsAg SI (HBsAg): 3.72
